According to US8415469B2, “Compounds and methods for kinase modulation, and indications therefor” (Plexxikon Inc., priority 2005, dated 2013):

What was measured:
Type in all cases: biochemical
Abl = target: T1, Abl (Homo sapiens, UniProt P00519); assay: AlphaScreen kinase assay, Abl; settings: read-out: activity toward kinase Abl, IC50
T1 construct: P1121. pET-SPEC BI-PTP Abl G227-V515-X; His6 (N); made in house; host or cells: E. coli (PTP1B co-expressed)
T1 sequence (P00519 with tags, fused parts or gaps): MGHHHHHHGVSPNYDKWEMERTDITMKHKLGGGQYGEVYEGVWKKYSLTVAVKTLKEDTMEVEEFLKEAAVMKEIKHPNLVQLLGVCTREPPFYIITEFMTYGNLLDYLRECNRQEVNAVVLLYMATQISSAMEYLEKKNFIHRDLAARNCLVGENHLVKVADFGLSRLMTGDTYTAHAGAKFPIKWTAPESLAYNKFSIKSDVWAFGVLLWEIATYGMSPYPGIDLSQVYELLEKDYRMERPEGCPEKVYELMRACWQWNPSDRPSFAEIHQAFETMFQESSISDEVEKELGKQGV
From the text: (§1) AlphaScreen assay was used to screen additional kinases. The assay is similarly dependent on the phosphorylation of a peptide substrate. In this assay, an antibody that recognizes phosphorylated substrate is bound to an acceptor bead. The peptide substrate is attached to biotin, which binds to a donor head that contains streptavidin. Thus phosphorylated substrate is bound by antibody and streptavidin, bringing the donor and acceptor heads into close proximity when kinase is not inhibited. The donor produces singlet oxygen which results in emission from the acceptor when they are in close proximity. Conversely, when kinase is inhibited, the donor and acceptor beads are not associated and the emission from the acceptor is reduced.
(§2) AlphaScreen assays were done using compounds dissolved in DMSO to a concentration of 20 mM. The compounds were diluted accordingly to the desired final concentrations in each sample well, using 1:3 serial dilution for a total of 8 concentration points.

Pyk2 = target: T2, Pyk2 (Homo sapiens, UniProt Q14289); assay: AlphaScreen kinase assay, Pyk2; settings: read-out: IC50, activity toward kinase Pyk2
T2 construct: purchased Upstate Biotechnology

Met = target: T3, Met (Homo sapiens, UniProt P08581); assay: AlphaScreen kinase assay, Met; settings: read-out: IC50, activity toward kinase Met
T3 construct: P1818.pETN6 BI-PTP MET G1056-G1364-X WT; His6 (N); made in house; host or cells: E. coli (PTP1B co-expressed)
From the text: as §1, §2

FGFR1 = target: T4, FGFR1 (Homo sapiens, UniProt P11362, C488A/C584S); assay: AlphaScreen kinase assay, FGFR1; settings: read-out: IC50, activity toward kinase FGFR
T4 construct: P1351.pET N6 BI-PTP FGFR A458-E765-X C488A, C584S; made in house; host or cells: E. coli (PTP1B co-expressed)

B-Raf V600E = target: T5, B-Raf V600E (Homo sapiens, UniProt P15056, V600E); assay: AlphaScreen kinase assay, B-Raf V600E; settings: read-out: IC50, activity toward kinase B-Raf V600E
T5 construct: P4254. pFastBacBD-CDC37 BRAF D437-K722-X, V600E; His6 with pFastBac HT leader (TEV site) (N); made in house; host or cells: Sf9 (baculovirus; chaperone CDC37 co-expressed)

Kit = target: T6, Kit (Homo sapiens, UniProt P10721); assay: AlphaScreen kinase assay, Kit; settings: read-out: IC50, activity toward kinase Kit
T6 construct: P1332.N6 BI PTP KIT M552-K948-X COD; His6 (N); made in house; host or cells: E. coli (PTP1B co-expressed)

Ret = target: T7, Ret (Homo sapiens, UniProt P07949); assay: AlphaScreen kinase assay, Ret; settings: read-out: IC50, activity toward kinase Ret
T7 construct: P1378.pET-SF BI-PTP RET H661-R1012 HIS; made in house
T7 sequence (P07949 with tags, fused parts or gaps): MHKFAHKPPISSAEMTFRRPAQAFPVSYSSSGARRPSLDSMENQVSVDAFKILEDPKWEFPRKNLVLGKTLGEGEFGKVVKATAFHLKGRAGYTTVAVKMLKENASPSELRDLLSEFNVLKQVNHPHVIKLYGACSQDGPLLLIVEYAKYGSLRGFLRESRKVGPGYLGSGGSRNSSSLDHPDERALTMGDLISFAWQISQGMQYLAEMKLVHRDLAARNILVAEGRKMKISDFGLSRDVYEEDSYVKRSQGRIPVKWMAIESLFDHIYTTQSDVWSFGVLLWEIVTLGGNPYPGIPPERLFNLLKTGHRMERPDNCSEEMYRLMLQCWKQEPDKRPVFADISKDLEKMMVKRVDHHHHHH

Jnk3 = target: T8, Jnk3 (Homo sapiens, UniProt P53779); assay: AlphaScreen kinase assay, Jnk3; settings: read-out: IC50, activity toward kinase Jnk3
T8 construct: purchased Upstate Biotechnology

B-Raf = target: T9, B-Raf (Homo sapiens, UniProt P15056); assay: AlphaScreen kinase assay, B-Raf; settings: read-out: IC50, activity toward kinase B-Raf
T9 construct: purchased Upstate Biotechnology

c-Raf-1 = target: T10, c-Raf-1 (Homo sapiens, UniProt P04049); assay: AlphaScreen kinase assay, c-Raf-1; settings: read-out: IC50, activity toward kinase c-Raf-1
T10 construct: purchased Upstate Biotechnology

Btk = target: T11, Btk (Homo sapiens, UniProt Q06187); assay: Z'-Lyte FRET kinase assay (Invitrogen), Btk; settings: read-out: IC50, activity toward kinase Btk
T11 construct: purchased Invitrogen (assay run by Invitrogen)

Yes = target: T12, Yes (Homo sapiens, UniProt P07947); assay: Z'-Lyte FRET kinase assay (Invitrogen), Yes; settings: read-out: IC50, activity toward kinase Yes
T12 construct: purchased Invitrogen (Carlsbad, Calif.), screening service
Outline: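 Inhibition was inferred from protease cleavage of non-phosphorylated peptide, measured as a coumarin/fluorescein ratio. Kinase reactions used 10 μM ATP for 1 h at room temperature.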

Zap70 = target: T13, Zap70 (Homo sapiens, UniProt P43403); assay: AlphaScreen kinase assay, Zap70; settings: read-out: IC50, activity toward kinase Zap70
T13 construct: P1868.pFastBac1 ZAP70 D327-G606 HIS, WT; His7 (HHHHHHH) (C); made in house
T13 sequence (P43403 with tags, fused parts or gaps): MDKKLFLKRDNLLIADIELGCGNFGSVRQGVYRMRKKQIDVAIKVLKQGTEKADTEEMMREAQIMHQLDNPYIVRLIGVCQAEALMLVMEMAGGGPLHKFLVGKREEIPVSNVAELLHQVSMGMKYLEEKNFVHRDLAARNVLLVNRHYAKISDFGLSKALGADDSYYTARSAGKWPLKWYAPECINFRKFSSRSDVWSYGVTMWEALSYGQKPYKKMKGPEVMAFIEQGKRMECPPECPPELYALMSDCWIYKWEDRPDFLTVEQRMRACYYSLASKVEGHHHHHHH
Outline: (§3)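 Kinase activity was measured as phosphorylation of a biotinylated peptide, detected with streptavidin donor and phospho-antibody acceptor beads. Compounds, from 20 mM DMSO stocks, were tested at eight concentrations in 1:3 serial dilution.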

Src = target: T14, Src (Homo sapiens, UniProt P12931); assay: AlphaScreen kinase assay, Src; settings: read-out: IC50, activity toward kinase Src
T14 construct: P1144. pET-N6 BI-PTP SRC V86-L536-X; made in house

Kdr = target: T15, Kdr (Homo sapiens, UniProt P35968); assay: Z'-Lyte FRET kinase assay (Invitrogen), Kdr; settings: read-out: IC50, activity toward kinase Kdr
T15 construct: purchased Invitrogen (assay run by Invitrogen)

Jnk2 = target: T16, Jnk2 (Homo sapiens, UniProt P45984); assay: AlphaScreen kinase assay, Jnk2; settings: read-out: IC50, activity toward kinase Jnk2
T16 construct: purchased Roche Protein Expression Group (Indianapolis, IN)
Outline: as §3

Fms = target: T17, Fms (Homo sapiens, UniProt P07333); assay: AlphaScreen kinase assay, Fms; settings: read-out: IC50, activity toward kinase Fms
T17 construct: purchased Upstate Biotechnology

Flt1 = target: T18, Flt1 (Homo sapiens, UniProt P17948); assay: AlphaScreen kinase assay, Flt1; settings: read-out: IC50, activity toward kinase Flt1
T18 construct: P1826.pETN6 BI-PTP FLT1 M799-D1165-X WT; His6 (N); made in house; host or cells: E. coli (PTP1B co-expressed)
T18 sequence (P17948 with tags, fused parts or gaps): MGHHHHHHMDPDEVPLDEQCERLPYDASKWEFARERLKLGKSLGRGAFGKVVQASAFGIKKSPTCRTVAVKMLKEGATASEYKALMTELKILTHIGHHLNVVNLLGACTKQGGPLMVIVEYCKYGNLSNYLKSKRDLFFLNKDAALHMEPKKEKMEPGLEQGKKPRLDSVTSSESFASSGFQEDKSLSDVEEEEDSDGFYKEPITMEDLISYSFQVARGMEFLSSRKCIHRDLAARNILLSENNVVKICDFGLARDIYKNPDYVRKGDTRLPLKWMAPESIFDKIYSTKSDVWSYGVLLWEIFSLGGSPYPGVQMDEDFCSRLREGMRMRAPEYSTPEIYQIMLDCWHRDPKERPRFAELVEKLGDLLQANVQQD

Jnk1 = target: T19, Jnk1 (Homo sapiens, UniProt P45983); assay: AlphaScreen kinase assay, Jnk1; settings: read-out: IC50, activity toward kinase Jnk1
T19 construct: purchased Upstate Biotechnology

MAP4K4 = MAP4K4 (Homo sapiens, UniProt O95819); assay: AlphaScreen kinase assay, MAP4K4; settings: read-out: IC50, activity toward kinase MAP4K4
Fak = target: T20, Fak (Homo sapiens, UniProt Q05397); assay: AlphaScreen kinase assay, Fak; settings: read-out: IC50, activity toward kinase Fak
T20 construct: P1358.pFastBacHtb FAK S411-Q686-X; His6 with pFastBacHTb leader (TEV site) (N); made in house; host or cells: Sf9 (baculovirus)

Measured: IC50

T4 sequence (P11362 458-765 C488A/C584S): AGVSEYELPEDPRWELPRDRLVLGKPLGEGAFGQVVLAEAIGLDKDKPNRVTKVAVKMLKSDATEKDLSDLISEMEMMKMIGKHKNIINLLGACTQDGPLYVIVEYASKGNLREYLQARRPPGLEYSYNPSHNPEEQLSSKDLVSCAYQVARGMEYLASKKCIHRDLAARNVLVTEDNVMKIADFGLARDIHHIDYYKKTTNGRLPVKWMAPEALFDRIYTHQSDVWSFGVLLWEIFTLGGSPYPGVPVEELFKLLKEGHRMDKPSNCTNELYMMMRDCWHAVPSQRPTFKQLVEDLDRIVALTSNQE
T5 sequence (P15056 with tags, fused parts or gaps V600E): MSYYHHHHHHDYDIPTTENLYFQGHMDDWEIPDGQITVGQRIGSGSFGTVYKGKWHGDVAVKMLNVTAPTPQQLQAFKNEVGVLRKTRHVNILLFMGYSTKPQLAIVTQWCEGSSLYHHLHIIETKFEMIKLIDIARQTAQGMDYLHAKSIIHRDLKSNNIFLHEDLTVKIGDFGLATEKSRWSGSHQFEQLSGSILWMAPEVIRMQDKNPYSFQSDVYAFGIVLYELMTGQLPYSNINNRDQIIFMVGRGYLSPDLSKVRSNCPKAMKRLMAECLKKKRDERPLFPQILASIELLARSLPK
T14 sequence (P12931 with tags, fused parts or gaps): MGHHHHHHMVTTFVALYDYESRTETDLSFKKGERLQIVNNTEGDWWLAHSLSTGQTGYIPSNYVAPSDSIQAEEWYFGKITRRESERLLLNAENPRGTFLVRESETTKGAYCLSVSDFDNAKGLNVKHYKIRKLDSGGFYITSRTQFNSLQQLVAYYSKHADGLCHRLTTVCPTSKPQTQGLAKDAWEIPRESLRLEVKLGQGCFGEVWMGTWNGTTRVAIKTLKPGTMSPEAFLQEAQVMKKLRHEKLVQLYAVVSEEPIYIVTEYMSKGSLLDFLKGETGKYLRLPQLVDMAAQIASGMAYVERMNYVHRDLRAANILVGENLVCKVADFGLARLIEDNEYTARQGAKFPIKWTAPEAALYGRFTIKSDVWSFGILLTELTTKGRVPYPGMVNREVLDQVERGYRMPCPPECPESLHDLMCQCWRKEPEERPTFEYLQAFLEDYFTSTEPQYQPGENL
T8 sequence (P53779 whole entry): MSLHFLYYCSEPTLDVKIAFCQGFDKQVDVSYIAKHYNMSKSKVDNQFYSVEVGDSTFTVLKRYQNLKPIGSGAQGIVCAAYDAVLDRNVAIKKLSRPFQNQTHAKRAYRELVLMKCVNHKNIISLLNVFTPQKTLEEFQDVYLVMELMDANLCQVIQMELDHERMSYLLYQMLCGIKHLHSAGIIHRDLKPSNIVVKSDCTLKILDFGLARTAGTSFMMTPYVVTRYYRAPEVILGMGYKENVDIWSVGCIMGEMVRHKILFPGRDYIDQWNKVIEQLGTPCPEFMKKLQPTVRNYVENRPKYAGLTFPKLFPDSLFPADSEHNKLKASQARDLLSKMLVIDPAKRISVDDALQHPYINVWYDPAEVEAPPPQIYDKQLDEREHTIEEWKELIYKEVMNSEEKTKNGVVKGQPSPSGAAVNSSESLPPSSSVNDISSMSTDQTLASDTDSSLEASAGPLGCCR
T3 sequence (P08581 with tags, fused parts or gaps): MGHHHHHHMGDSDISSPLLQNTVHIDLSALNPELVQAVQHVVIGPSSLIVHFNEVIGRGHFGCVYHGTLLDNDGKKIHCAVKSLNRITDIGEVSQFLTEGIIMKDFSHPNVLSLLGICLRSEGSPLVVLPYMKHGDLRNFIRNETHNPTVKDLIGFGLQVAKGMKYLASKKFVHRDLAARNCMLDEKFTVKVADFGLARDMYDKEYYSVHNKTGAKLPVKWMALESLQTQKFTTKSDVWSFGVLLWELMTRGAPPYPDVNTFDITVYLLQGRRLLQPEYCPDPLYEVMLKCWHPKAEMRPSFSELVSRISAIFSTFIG
T2 sequence (Q14289 whole entry): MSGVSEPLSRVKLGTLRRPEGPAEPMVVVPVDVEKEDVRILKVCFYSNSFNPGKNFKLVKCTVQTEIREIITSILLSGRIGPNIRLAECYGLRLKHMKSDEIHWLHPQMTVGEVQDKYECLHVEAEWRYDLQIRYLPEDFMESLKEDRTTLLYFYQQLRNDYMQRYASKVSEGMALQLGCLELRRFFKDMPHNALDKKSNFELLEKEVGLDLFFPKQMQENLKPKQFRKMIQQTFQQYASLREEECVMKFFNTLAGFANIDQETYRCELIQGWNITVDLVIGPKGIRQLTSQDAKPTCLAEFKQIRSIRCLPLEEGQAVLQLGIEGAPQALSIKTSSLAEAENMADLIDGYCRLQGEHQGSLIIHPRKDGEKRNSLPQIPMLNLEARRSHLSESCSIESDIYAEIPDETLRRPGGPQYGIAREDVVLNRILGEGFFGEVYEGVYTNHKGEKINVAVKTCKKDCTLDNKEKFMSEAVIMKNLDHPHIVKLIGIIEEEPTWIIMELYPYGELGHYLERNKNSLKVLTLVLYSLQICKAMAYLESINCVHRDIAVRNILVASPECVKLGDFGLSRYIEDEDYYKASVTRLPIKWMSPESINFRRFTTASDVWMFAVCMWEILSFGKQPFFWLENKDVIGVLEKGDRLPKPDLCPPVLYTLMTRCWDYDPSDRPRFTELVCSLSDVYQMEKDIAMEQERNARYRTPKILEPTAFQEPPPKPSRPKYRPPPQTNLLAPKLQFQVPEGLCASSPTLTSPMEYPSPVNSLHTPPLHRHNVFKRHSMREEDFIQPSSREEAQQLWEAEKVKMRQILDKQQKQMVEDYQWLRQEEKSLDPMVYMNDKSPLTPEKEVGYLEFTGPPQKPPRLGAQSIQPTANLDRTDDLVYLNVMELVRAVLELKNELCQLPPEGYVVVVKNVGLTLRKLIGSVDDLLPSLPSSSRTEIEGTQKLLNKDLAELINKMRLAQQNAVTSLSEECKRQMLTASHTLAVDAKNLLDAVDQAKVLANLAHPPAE
T6 sequence (P10721 with tags, fused parts or gaps): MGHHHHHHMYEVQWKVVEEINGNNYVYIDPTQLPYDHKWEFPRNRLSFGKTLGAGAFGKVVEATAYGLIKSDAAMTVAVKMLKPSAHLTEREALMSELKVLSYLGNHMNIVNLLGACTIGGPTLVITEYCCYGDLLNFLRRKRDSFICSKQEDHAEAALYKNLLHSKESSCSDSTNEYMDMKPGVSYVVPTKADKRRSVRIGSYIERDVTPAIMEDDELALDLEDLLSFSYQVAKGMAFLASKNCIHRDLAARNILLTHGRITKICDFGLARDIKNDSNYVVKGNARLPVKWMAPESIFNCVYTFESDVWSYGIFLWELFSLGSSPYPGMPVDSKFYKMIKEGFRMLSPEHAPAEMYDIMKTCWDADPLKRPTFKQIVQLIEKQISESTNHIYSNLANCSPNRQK
T9 sequence (P15056 whole entry): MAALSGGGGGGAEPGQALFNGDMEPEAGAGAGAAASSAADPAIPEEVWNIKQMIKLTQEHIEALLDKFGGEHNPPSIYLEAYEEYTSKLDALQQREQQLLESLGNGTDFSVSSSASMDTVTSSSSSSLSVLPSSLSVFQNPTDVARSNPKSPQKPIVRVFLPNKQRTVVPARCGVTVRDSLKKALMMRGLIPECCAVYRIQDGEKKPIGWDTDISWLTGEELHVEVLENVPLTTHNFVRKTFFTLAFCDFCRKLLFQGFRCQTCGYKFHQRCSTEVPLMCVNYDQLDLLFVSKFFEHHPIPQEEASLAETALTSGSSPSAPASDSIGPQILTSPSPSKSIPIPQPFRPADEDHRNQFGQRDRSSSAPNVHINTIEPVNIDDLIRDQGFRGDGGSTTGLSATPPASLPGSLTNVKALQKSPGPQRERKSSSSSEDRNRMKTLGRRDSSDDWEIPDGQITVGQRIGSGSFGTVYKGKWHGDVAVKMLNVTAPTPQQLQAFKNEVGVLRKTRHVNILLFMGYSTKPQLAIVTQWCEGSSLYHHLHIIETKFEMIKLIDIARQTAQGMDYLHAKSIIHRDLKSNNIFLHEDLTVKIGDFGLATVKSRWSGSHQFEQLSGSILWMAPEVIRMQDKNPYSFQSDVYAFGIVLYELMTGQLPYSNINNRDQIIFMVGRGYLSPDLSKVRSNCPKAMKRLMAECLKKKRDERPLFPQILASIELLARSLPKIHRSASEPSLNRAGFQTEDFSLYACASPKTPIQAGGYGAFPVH
T17 sequence (P07333 20-972): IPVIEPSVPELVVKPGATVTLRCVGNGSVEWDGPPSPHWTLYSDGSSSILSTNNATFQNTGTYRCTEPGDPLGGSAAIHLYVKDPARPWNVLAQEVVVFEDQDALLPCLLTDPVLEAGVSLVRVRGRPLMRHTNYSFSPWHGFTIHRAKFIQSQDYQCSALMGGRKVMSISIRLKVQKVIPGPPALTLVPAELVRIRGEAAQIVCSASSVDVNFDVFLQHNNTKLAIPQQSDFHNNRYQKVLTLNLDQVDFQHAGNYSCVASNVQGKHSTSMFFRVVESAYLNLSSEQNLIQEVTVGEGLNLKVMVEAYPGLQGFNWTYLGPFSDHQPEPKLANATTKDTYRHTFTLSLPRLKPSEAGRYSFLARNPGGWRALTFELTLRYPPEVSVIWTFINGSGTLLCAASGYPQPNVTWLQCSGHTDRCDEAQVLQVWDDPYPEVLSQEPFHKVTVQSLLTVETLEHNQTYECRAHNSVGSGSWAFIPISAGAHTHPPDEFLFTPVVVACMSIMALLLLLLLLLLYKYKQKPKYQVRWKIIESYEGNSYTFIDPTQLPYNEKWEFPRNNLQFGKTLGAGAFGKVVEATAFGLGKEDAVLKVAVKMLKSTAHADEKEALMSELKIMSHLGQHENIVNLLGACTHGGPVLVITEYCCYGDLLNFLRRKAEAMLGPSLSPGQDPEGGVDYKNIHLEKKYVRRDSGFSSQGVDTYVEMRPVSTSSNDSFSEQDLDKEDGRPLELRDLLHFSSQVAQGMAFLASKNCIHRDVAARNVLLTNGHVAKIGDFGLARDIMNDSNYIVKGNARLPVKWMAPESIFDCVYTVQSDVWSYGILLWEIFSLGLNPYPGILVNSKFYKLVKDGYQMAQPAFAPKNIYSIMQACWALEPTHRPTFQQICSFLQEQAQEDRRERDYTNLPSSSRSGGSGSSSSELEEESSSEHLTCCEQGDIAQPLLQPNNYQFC

c1csc(Sc2c[nH]c3ncccc23)c1 [Compound P-0529]
≤ 10 µM: Abl | Pyk2

Cc1ccc(Nc2cnc3[nH]ccc3c2)cc1 [Compound P-1037]
≤ 10 µM: Met

Cc1ccc(F)cc1C(=O)c1c[nH]c2ncc(-c3ccsc3)cc12 [Compound P-0671]
≤ 10 µM: FGFR1 | B-Raf V600E | Kit | Abl | Ret | Jnk3

O=C(c1cc(O)ccc1F)c1c[nH]c2ncc(-c3ccsc3)cc12 [Compound P-0604]
≤ 10 µM: B-Raf V600E | Kit | B-Raf | Abl | c-Raf-1 | Ret | Jnk3

COc1ccc(F)c(C(=O)c2c[nH]c3ncc(-c4cccc(/C=C/C(=O)O)c4)cc23)c1 [Compound P-0047]
≤ 10 µM: B-Raf V600E | Abl | Btk | Yes | Ret | Zap70 | Jnk3

CCOc1cccc(Cc2c[nH]c3ncc(-c4ccsc4)cc23)c1 [Compound P-0562]
≤ 10 µM: FGFR1 | Kit | Abl | Src | Pyk2 | Jnk3 | Kdr

Cc1ccc(S(=O)(=O)NCc2c[nH]c3ncc(-c4ccsc4)cc23)cc1 [Compound P-1127]
≤ 10 µM: Abl

Cc1ccccc1C(=O)c1c[nH]c2ncc(-c3cccnc3)cc12 [Compound P-0623]
≤ 10 µM: FGFR1 | B-Raf V600E | Kit | Abl | Ret | Src | Jnk2 | Kdr

COc1cc(Nc2cnc3[nH]ccc3c2)cc(OC)c1OC [Compound P-1092]
≤ 10 µM: Met

O=C(NCc1ccccn1)NCc1c[nH]c2ncccc12 [Compound P-0761]
≤ 10 µM: Met | Ret

Cc1cccc(-c2c(CSCc3ccccc3)[nH]c3ncccc23)c1 [Compound P-1132]
≤ 10 µM: Met

Cc1ccc(F)cc1C(=O)c1c[nH]c2ncc(-c3cccnc3)cc12 [Compound P-0693]
≤ 10 µM: FGFR1 | B-Raf V600E | Kit | B-Raf | Abl | Ret

Cc1ccccc1C(=O)c1c[nH]c2ncc(-c3ccsc3)cc12 [Compound P-0244]
≤ 10 µM: FGFR1 | B-Raf V600E | Fms | Kit | Abl | Flt1 | Ret | Src | Jnk1 | Jnk3

O=C(c1cc(O)ccc1F)c1c[nH]c2nccc(Cl)c12 [Compound P-0794]
≤ 10 µM: B-Raf V600E | Kit | B-Raf | Abl | c-Raf-1 | Ret

Cc1cc(C(=O)c2c[nH]c3ncc(-c4cccc(N)c4)cc23)n(C)n1 [Compound P-1115]
≤ 10 µM: Abl | Ret

Cc1cc(C(=O)c2c[nH]c3ncc(-c4cccnc4)cc23)n(C)n1 [Compound P-0800]
≤ 10 µM: Kit | Abl | MAP4K4

Cc1ccccc1C(=O)c1c[nH]c2ncc(-c3ccc(C(N)=O)cc3)cc12 [Compound P-1011]
≤ 10 µM: Abl | Ret | Jnk3

COc1cccc(Cc2c[nH]c3nccc(Br)c23)c1 [Compound P-0501]
≤ 10 µM: FGFR1 | Fms | Kit | Abl | Ret | Src | Fak | Pyk2
